Measurements taken from US20240400546A1, “COMPOUNDS AND USES THEREOF” (JANSSEN PHARMACEUTICA NV, priority 2016, published 2024).

These molecules were tested against T1, SCD1 (Homo sapiens, UniProt O00767) (assay: Growth inhibition of humanized yeast expressing SCD1 as sole desaturase). Details: humanized yeast expressing SCD1.
T1 construct: host or cells: S. cerevisiae ole1Δ strain, plasmid pRS316 with TDH3 promoter and CYC1 terminator
T1 sequence (O00767 1-359): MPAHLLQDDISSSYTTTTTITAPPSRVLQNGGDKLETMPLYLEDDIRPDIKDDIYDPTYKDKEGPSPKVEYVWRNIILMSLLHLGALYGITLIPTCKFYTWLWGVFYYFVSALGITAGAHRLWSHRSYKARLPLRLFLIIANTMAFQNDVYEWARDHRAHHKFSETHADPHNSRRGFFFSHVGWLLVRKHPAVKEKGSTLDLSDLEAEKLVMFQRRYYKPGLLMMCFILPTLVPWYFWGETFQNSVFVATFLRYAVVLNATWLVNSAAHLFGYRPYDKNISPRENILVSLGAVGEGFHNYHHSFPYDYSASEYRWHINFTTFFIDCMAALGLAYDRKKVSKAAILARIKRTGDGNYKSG
Type: cell-based
Method: Strain ole1Δ (yeast ole1 deletion mutant) was constructed by deleting OLE1 with NAT-MX6 in BY4741, amplifying the deletion cassette from the genomic DNA of the resulting strain with primers flanking the ORF by 1000 bp upstream and downstream, transforming the resulting deletion cassette into W303 pdr1Δ pdr3Δ, and plating transformants on YPD media containing G418 (200 μg/mL) and nourseothricin (100 μg/mL) with 0.01% TWEEN®-20 and 0.5 mM oleic and palmitoleic acids.
The coding sequence of yeast OLE1 was also cloned into this plasmid). These clones were then transformed into the ole1Δ strain and plated on CSM-Ura media (CSM lacking uracil) with 2% glucose (w/v) and independent colonies were isolated and amplified.
All compound profiling experiments were performed using the same basic protocol. Different genetic backgrounds (e.g., gene deletions) or conditions (e.g., addition of oleic and palmitoleic acid) were replaced as indicated below.
Yeast were cultured using standard techniques in complete synthetic media (CSM) and yeast nitrogen base supplemented with 2% (w/v) carbon source (glucose, raffinose, or galactose) to regulate the expression of the toxic disease protein. An initial starter culture was inoculated in 3 mL CSM-Glucose media and incubated overnight in a 30° C. shaker incubator (225 rpm). Saturated morning cultures were then diluted 1:20 in fresh CSM-Raffinose media and grown for 6 h to an OD600 (optical density) of ˜0.4-0.8 at 30° C. with shaking.
Compound administration was performed in two separate steps. First, 15 μL of CSM-Galactose (induces expression of toxic protein) was dispensed into clear 384 well assay plates using a MULTIDROP™ Combi reagent dispenser. […] The cultures described above were then diluted to a 2× concentration (0.03 and 0.08 for alpha-synuclein and ApoE, final OD600 of 0.015 and 0.04) in CSM-Galactose. For wild-type and Ole1/SCD1/SCD5 plasmid-containing strains, the 2× cell density was 0.02. […] For 96-well assays (FIGS. 1A and 1B), compound dilutions in DMSO were generated in 96 well plates and 1 μL was manually pipetted into 96 well clear bottom assay plates.
For experiments using a plasmid-borne copy of Ole1, SCD1, or SCD5 (FIGS. 3B, 6, and 7), media lacking uracil (SX-Ura, where X is glucose, raffinose, or galactose), was used for all steps of the compound profiling protocol to ensure its maintenance throughout the assay.
After yeast delivery, assay plates were incubated under humidified conditions at 30° C. for 24 to 40 h. ApoE4 rescue experiments were stopped at 24 h, aSyn experiments at 40 h, Ole1 at 24 h, and SCD1/SCD5 at 40 h. The growth of yeast was monitored by reading the OD600 of each well using a microplate reader (Perkin Elmer EnVision™).
With `CC(C)n1ncc2cc(-c3noc(C4CCN(C(=O)CNC(=O)c5ccccc5)CC4)n3)ccc21` [Compound 228] the IC50 was 41 µM.
Molecule `O=C(CNC(=O)c1ccccc1)NCCc1nc(-c2ccccc2)no1` [Compound 485] has an IC50 greater than 45 µM.
With `CCN1C(=O)COc2ccc(-c3noc(C4(c5ccc(OC)cc5)CC4)n3)cc21` [Compound 491] the IC50 was greater than 45 µM.
`CCN(Cc1nc(-c2ccc(OC)c(OC)c2)no1)C(=O)Cc1ccccc1` [Compound 492] was tested, and the IC50 was greater than 45 µM.
`CCNCc1nc(-c2ccc3c(c2)N(CC)C(=O)CO3)no1` [Compound 493] showed an IC50 greater than 45 µM.
For `CCN(Cc1nc(-c2ccc3c(c2)N(CC)C(=O)CO3)no1)C(=O)Cc1cccc2ccccc12` [Compound 494], the IC50 was greater than 45 µM.

Same assay, conditions: humanized yeast expressing human SCD1
`CC(C)n1ncc2ccc(-c3noc(C4CCN(C(=O)c5ncccc5Cl)CC4)n3)cc21` [Compound 587] was tested, and the IC50 was greater than 45 µM.
In the case of `CC(C)n1ncc2ccc(-c3noc(N4C[C@@H]5CN(C(=O)CC(C)(C)C)C[C@H]5C4)n3)cc21` [Compound 569], the IC50 is reported as greater than 45 µM.
In the case of `Cc1c2ccc(-c3noc(C4CCN(C(=O)CNC(=O)c5ccccc5)CC4)n3)cc2nn1C(C)C` [Compound 289], the IC50 is reported as greater than 45 µM.
`CC(C)n1ncc2ccc(-c3nc(C4CCN(C(=O)c5cccc(F)c5)CC4)no3)cc21` [Compound 506] showed an IC50 greater than 45 µM.
`N#Cc1ccc(-c2noc(C3CCN(C(=O)[C@H]4CC(=O)N(c5ccccc5)C4)CC3)n2)s1` [Compound 247] gave an IC50 greater than 45 µM.
Work on `Cc1nn(C)c2cc(-c3noc(C4CCN(C(=O)NC(C)(C)C)CC4)n3)ccc12` [Compound 282] yielded an IC50 greater than 45 µM.
Molecule `CC(C)n1ncc2ccc(-c3noc(N4CCN(C(=O)c5ccccc5)CC4)n3)cc21` [Compound 362] has an IC50 greater than 45 µM.
With `Cc1nn(C)c2cc(-c3noc(C4CN(C(=O)OC(C)(C)C)C4)n3)ccc12` [Compound 365] the IC50 was greater than 45 µM.
`N#Cc1cccc(N2C[C@@H](C(=O)N3CCC(c4nc(-c5ccc6cnn(C7COC7)c6c5)no4)CC3)CC2=O)c1` [Compound 599] was tested, and the IC50 was greater than 45 µM.
In the case of `Cc1nn(C)c2cc(-c3noc(C4CCN(C(=O)CNC(=O)c5cc(F)ccc5C(F)(F)F)CC4)n3)ccc12` [Compound 304], the IC50 is reported as greater than 45 µM.
For `CC(C)OC(=O)N1CCC(c2nc(-c3ccc4cnn(C(C)C)c4c3)no2)CC1` [Compound 357], the IC50 was greater than 45 µM.
For `CC(C)c1ccc(C(=O)N2CCC(c3nc(C(=O)Nc4cnn(C)c4)no3)CC2)cc1` [Compound 285], the IC50 was greater than 45 µM.
`CC(C)c1ccc(C(=O)N2CCC(c3nc(N4CC5(CCCO5)C4)no3)CC2)cc1` [Compound 336] was tested, and the IC50 was greater than 45 µM.
Molecule `Cc1nn(C)c2cc(-c3noc(C4CCN(C(=O)CC5CN(C(=O)OC(C)(C)C)C5)CC4)n3)ccc12` [Compound 502] has an IC50 greater than 45 µM.
With `CCc1nn(C)c2cc(-c3noc(C4CCN(C(=O)CNC(=O)c5ccccc5)CC4)n3)ccc12` [Compound 309] the IC50 was greater than 45 µM.
Molecule `Cc1nn(C)c2cc(-c3noc(N4CCN(C(=O)c5cc(F)ccc5Cl)CC4)n3)ccc12` [Compound 278] has an IC50 greater than 45 µM.
For `CCc1c2ccc(-c3noc(C4CCN(C(=O)CNC(=O)c5ccccc5)CC4)n3)cc2nn1C` [Compound 321], the IC50 was greater than 45 µM.
In the case of `CC(C)c1ccc(C(=O)N2CCC(c3nc(C(=O)Nc4ccnn4C)no3)CC2)cc1` [Compound 287], the IC50 is reported as greater than 45 µM.
In the case of `CCN1C(=O)CN(C)c2cc(-c3noc(C4CCN(C(=O)CNC(=O)c5ccccc5)CC4)n3)ccc21` [Compound 310], the IC50 is reported as greater than 45 µM.
`CC(C)n1ncc2ccc(-c3noc(C4CCN(C(=O)c5ccccc5F)CC4)n3)cc21` [Compound 532] gave an IC50 greater than 45 µM.
With `CC(C)n1ncc2ccc(-c3noc([C@@H]4[C@@H]5CN(C(=O)OC(C)(C)C)C[C@@H]54)n3)cc21` [Compound 498] the IC50 was greater than 45 µM.
Molecule `CC(C)n1ncc2ccc(-c3nc(C4CCN(C(=O)c5ccccn5)CC4)no3)cc21` [Compound 499] has an IC50 greater than 45 µM.
`COC(=O)N[C@H]1CC[C@@H](c2nc(-c3ccc4c(C)nn(C)c4c3)no2)CC1` [Compound 550] gave an IC50 greater than 45 µM.
`Cc1noc2cc(-c3noc(C4CCN(C(=O)OC5(C)CC5)CC4)n3)ccc12` [Compound 590] gave an IC50 greater than 45 µM.
`COc1ccc(S(=O)(=O)N2CCC(c3nc(-c4ccc5cnn(C(C)C)c5c4)no3)CC2)c(Br)c1` [Compound 539] showed an IC50 greater than 45 µM.
In the case of `Cc1nn(C)c2cc(-c3noc(N4CCN(C(=O)[C@H]5CC(=O)N(c6ccccc6)C5)CC4)n3)cnc12` [Compound 246], the IC50 is reported as greater than 45 µM.
`CC(C)N1C(=O)CCc2ccc(-c3noc(C4CCN(C(=O)OC(C)(C)C)CC4)n3)cc21` [Compound 572] was tested, and the IC50 was greater than 45 µM.
`CC(C)n1ncc2ccc(-c3noc(C4=C(F)CN(C(=O)OC(C)(C)C)CC4)n3)cc21` [Compound 510] gave an IC50 greater than 45 µM.
`CC(C)n1ncc2ccc(-c3noc(C4CCN(C(=O)c5cccs5)CC4)n3)cc21` [Compound 574] gave an IC50 greater than 45 µM.
Work on `Cc1nn(C2CC2)c2cc(-c3noc(C4CCN(C(=O)CNC(=O)c5ccccc5)CC4)n3)ccc12` [Compound 286] yielded an IC50 greater than 45 µM.
`Cc1nn(C)c2cc(-c3noc([C@@H]4CCN(C(=O)CNC(=O)c5ccccc5)CC4(F)F)n3)ccc12` [Compound 577] showed an IC50 greater than 45 µM.
`Cc1nn(C)c2cc(-c3noc(C4CCN(C(=O)c5cc(F)ccc5C(F)(F)F)CC4)n3)ccc12` [Compound 292] gave an IC50 greater than 45 µM.
Work on `Cc1nn(C)c2cc(-c3noc(C4CCN(C(=O)c5cccc(F)c5)CC4)n3)ccc12` [Compound 284] yielded an IC50 greater than 45 µM.
`Cc1nn(C)c2cc(-c3noc(C4CCN(C(=O)Oc5ccccc5)CC4)n3)ccc12` [Compound 272] showed an IC50 greater than 45 µM.
Molecule `CC(C)n1ncc2ccc(-c3noc(N4CCN(C(=O)c5ccccc5Cl)CC4)n3)cc21` [Compound 364] has an IC50 greater than 45 µM.
In the case of `COC(=O)N1CCN(c2nc(-c3ccc4cnn(C(C)C)c4c3)no2)CC1` [Compound 356], the IC50 is reported as greater than 45 µM.
Molecule `CC(C)CS(=O)(=O)N1CCC(c2nc(-c3ccc4cnn(C(C)C)c4c3)no2)CC1` [Compound 565] has an IC50 greater than 45 µM.
Molecule `CC(C)n1ncc2ccc(-c3noc(C4CCN(C(=O)c5nccs5)CC4)n3)cc21` [Compound 549] has an IC50 greater than 45 µM.
`COCC(=O)N1CCN(c2nc(-c3ccc4cnn(C(C)C)c4c3)no2)CC1` [Compound 595] gave an IC50 greater than 45 µM.
Work on `CCn1nc(C)c2ccc(-c3noc(C4CCN(C(=O)OC(C)(C)C)CC4)n3)cc21` [Compound 301] yielded an IC50 greater than 45 µM.
Work on `CC(C)n1ncc2ccc(-c3noc(C4CCN(C(=O)c5ccc(Cl)cc5F)CC4)n3)cc21` [Compound 533] yielded an IC50 greater than 45 µM.
For `O=C(c1ccccc1)N1CCC(c2nc(N3CC4(COC4)C3)no2)CC1` [Compound 334], the IC50 was greater than 45 µM.
In the case of `Cn1ncc2ccc(-c3noc(N4CCN(C(=O)OC(C)(C)C)CC4)n3)cc21` [Compound 545], the IC50 is reported as greater than 45 µM.
`CC(C)n1ncc2ccc(-c3noc(N4CC5(CCN(C(=O)OC(C)(C)C)CC5)C4)n3)cc21` [Compound 555] showed an IC50 greater than 45 µM.
For `CC1(CC(=O)N2CCC(c3nc(-c4ccc5cnn(C6COC6)c5c4)no3)CC2)CC1` [Compound 559], the IC50 was greater than 45 µM.
For `CC(C)n1ncc2ccc(-c3noc(C4CCN(C(=O)c5ncc(Cl)s5)CC4)n3)cc21` [Compound 589], the IC50 was greater than 45 µM.
In the case of `CCOC(=O)N1CCC(c2nc(-c3ccc4cnn(C(C)C)c4c3)no2)CC1` [Compound 361], the IC50 is reported as greater than 45 µM.
For `Cc1nn(C)c2cc(-c3noc(C4CCN(C(=O)CNC(=O)c5ccccc5C(F)(F)F)CC4)n3)ccc12` [Compound 271], the IC50 was greater than 45 µM.
`C[C@@H](O)C(=O)N1CCC(c2nc(-c3ccc4cnn(C5COC5)c4c3)no2)CC1` [Compound 597] gave an IC50 greater than 45 µM.
`CC(C)n1ncc2ccc(-c3noc(N4CCN(C(=O)OCC(F)(F)F)CC4)n3)cc21` [Compound 593] showed an IC50 greater than 45 µM.
With `CC(C)n1ncc2ccc(-c3noc(N4CCN(C(=O)CC5(C)CC5)CC4)n3)cc21` [Compound 495] the IC50 was greater than 45 µM.
Work on `CCc1cnc(N2CCC(c3nc(-c4ccc5c(C)nn(C)c5c4)no3)CC2)cn1` [Compound 560] yielded an IC50 greater than 45 µM.
For `CC(C)n1ncc2ccc(-c3noc(C4CCN(C(=O)CNC(=O)c5cccc(C#N)c5)CC4)n3)cc21` [Compound 556], the IC50 was greater than 45 µM.
